The results in this text go back to ChEMBL document CHEMBL3576831, “Discovery of a Selective TRPM8 Antagonist with Clinical Efficacy in Cold-Related Pain” (ACS Med Chem Lett, 2015).

Data set [1] addresses Transient receptor potential cation channel subfamily M member 8 (Homo sapiens, UniProt Q7Z2W7). Put plainly: Antagonist activity against human recombinant TRPM8 expressed in CHO T-rex cells assessed as inhibition of WS12-induced calcium response pre-incubated for 20 mins before WS12 addition. The data set is classed as cell-based.
A short description of data set [2]: Lipophilicity, log D of the compound. The data set is classed as physicochemical. To be noted: octanol/water.
In data set [3] the test system is Liver microsome. Put plainly: Intrinsic clearance in rat liver microsomes. The data set is classed as ADME.
The target of data set [4] is Voltage-gated inwardly rectifying potassium channel KCNH2 (Homo sapiens, UniProt Q12809). In words: Inhibition of dofetilide binding to human ERG.
Chain of Voltage-gated inwardly rectifying potassium channel KCNH2 (Q12809 whole entry): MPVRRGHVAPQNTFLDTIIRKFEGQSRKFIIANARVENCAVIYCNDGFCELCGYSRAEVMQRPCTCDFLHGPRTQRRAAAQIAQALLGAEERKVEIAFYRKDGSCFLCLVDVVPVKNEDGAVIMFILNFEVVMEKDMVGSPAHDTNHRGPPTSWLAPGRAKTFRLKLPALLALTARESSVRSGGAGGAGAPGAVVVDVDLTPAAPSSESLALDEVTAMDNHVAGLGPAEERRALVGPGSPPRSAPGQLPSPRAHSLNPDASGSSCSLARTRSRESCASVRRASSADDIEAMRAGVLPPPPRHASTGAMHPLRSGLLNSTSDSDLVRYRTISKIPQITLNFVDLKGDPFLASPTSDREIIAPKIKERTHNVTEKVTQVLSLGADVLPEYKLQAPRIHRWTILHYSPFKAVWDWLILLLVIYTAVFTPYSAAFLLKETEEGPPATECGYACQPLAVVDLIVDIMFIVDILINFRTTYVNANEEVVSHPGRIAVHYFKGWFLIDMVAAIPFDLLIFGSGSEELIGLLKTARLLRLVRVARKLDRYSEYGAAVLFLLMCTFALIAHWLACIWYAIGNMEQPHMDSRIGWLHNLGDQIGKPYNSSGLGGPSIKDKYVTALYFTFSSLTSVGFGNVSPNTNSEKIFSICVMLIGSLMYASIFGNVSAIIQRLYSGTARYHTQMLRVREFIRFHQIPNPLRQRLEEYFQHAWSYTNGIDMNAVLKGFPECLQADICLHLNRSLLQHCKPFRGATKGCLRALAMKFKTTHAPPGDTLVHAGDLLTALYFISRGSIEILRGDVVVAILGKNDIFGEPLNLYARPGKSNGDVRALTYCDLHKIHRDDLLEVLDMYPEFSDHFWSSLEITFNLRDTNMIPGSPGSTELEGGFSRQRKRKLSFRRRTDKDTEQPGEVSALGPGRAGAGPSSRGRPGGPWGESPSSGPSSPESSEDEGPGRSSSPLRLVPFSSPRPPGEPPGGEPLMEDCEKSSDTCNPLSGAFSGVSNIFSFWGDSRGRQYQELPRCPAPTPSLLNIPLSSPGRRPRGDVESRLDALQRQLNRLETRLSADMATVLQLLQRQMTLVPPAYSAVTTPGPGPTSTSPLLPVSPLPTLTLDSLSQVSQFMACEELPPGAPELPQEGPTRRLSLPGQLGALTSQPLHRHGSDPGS
For data set [5], the target named is CYP3A4 (Homo sapiens, UniProt P08684). Put plainly: Inhibition of CYP3A4 (unknown origin) at 3 uM. Format: ADME.
Chain of CYP3A4 (P08684 whole entry): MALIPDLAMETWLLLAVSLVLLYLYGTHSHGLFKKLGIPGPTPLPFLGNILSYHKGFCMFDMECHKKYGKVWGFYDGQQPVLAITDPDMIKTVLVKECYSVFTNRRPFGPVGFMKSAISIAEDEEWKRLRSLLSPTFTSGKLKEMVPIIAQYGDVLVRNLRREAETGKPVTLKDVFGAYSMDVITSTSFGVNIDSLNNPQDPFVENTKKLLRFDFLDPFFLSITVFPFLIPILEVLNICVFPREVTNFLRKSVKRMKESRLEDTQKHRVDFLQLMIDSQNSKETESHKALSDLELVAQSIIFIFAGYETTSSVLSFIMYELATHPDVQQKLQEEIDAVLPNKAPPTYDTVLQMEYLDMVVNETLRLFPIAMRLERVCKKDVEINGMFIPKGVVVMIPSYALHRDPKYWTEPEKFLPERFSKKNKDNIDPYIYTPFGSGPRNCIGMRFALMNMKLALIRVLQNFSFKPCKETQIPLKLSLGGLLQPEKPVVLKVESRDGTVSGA
Data set [6] has as its target CYP2D6 (Homo sapiens, UniProt P10635). In words: Inhibition of CYP2D6 (unknown origin) at 3 uM. The data set is classed as ADME.
For data set [7], the target named is T1, CYP1A2 (Homo sapiens, UniProt P05177).
T1 sequence (P05177 whole entry): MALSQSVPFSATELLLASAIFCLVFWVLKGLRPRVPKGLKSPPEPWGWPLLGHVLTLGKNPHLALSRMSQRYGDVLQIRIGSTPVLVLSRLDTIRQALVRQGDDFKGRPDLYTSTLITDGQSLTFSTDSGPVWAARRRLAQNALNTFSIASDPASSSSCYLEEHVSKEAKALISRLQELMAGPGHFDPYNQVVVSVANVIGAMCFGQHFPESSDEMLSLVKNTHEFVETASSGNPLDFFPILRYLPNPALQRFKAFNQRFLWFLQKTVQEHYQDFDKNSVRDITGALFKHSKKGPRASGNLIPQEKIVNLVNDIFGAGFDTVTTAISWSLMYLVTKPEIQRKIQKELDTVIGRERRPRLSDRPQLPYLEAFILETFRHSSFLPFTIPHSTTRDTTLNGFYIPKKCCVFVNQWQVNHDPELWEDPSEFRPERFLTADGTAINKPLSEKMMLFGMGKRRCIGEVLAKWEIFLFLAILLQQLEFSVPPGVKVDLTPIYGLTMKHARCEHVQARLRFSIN
In words: Inhibition of CYP1A2 (unknown origin) at 3 uM. Format: ADME.

Data set [8] can be described thus: Intrinsic clearance in human liver microsomes. The data set is classed as ADME. As to conditions: read-out: CLH.
Data set [9] has as its target CYP2C9 (Homo sapiens, UniProt P11712). Put plainly: Inhibition of CYP2C9 (unknown origin) at 3 uM. The data set is classed as ADME.
Data set [10] deals with Hepatocyte. Put plainly: Intrinsic clearance in human hepatocytes assessed per million cells. Format: ADME, cell-based.
Data set [11] has as its target T2, CYP2C8 (Homo sapiens, UniProt P10632).
T2 sequence (P10632 whole entry): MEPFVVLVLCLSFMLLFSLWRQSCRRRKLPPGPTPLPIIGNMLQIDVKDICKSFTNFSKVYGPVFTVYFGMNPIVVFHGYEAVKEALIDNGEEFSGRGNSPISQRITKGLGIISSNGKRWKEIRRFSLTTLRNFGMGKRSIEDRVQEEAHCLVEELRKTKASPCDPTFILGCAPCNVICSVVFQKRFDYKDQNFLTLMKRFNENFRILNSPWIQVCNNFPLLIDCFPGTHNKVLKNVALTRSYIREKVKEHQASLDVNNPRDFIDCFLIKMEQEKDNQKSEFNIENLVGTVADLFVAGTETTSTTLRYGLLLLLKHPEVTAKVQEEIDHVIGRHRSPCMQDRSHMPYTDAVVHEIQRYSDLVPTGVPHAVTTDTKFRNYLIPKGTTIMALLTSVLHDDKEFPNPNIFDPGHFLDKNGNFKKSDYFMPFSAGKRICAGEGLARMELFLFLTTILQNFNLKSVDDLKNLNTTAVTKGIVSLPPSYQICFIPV
In words: Inhibition of CYP2C8 (unknown origin) at 3 uM. The data set is classed as ADME.

Bounds are passed on as bounds.

Chain of CYP2D6 (P10635 whole entry): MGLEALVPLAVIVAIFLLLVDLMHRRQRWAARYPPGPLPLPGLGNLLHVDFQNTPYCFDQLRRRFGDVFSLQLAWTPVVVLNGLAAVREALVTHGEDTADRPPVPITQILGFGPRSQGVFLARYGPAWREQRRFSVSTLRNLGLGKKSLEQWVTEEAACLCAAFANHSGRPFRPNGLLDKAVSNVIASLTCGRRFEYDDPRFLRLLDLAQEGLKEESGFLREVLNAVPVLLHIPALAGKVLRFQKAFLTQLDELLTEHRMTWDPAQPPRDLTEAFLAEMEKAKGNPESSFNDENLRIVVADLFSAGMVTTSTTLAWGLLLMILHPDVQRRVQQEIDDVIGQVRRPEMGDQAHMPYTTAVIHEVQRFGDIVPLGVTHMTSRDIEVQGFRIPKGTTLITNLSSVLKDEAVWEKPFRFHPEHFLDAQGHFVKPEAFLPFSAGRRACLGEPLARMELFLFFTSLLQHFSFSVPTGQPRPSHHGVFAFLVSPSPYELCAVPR
Chain of CYP2C9 (P11712 whole entry): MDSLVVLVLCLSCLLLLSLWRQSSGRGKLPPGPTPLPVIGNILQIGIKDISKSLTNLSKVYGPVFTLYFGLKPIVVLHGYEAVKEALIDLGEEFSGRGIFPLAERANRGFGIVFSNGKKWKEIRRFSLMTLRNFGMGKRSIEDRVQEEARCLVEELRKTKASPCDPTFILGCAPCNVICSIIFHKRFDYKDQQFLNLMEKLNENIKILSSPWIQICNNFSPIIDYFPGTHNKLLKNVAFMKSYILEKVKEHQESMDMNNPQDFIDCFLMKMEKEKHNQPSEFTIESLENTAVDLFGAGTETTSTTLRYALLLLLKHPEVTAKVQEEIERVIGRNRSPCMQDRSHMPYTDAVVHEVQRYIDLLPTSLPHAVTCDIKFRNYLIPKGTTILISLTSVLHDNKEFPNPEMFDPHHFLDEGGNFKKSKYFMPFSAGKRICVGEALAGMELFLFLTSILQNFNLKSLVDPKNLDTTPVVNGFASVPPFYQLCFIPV
Chain of Transient receptor potential cation channel subfamily M member 8 (Q7Z2W7 whole entry): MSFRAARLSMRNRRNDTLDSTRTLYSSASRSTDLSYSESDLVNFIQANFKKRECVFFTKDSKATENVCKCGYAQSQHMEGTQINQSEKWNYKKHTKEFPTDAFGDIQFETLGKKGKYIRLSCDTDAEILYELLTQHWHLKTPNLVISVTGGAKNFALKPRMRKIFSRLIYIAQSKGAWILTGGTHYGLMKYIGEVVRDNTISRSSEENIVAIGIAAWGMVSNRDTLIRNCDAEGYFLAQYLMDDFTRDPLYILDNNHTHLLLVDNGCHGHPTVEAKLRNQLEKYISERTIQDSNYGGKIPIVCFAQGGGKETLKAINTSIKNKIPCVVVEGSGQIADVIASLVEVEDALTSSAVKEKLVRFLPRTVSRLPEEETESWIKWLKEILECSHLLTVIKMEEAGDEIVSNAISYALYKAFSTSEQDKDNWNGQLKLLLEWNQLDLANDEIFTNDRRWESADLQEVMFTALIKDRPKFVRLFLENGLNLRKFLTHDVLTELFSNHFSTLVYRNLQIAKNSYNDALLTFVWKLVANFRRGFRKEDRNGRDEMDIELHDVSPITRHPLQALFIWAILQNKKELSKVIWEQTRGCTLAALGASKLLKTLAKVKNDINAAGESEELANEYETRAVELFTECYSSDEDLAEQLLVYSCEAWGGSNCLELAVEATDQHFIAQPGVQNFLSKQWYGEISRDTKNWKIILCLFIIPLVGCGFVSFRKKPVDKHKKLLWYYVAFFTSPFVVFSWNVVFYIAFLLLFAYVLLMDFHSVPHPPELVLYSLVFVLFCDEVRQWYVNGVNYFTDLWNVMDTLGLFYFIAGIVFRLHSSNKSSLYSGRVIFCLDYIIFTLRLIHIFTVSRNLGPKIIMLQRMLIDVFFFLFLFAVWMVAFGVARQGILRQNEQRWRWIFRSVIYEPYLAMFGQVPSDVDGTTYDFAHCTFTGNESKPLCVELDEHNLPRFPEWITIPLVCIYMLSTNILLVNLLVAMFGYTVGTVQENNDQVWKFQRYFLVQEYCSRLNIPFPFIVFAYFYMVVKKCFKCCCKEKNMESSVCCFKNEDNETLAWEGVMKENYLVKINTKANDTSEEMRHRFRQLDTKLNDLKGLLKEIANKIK

Regarding `O=C(O)c1cccc(CN(Cc2ccc(F)cc2)C(=O)c2cnc3ccccc3c2)c1`, the IC50 in data set [1] is above 9.36 µM.
The same measure, in the same setting: then `C[C@H](c1ccc(F)cc1)N(Cc1cccc(C(=O)O)c1)C(=O)c1cc2cc[nH]c2cn1`, with 0.951 µM.
In data set [2], `C[C@H](c1ccc(F)cc1)N(Cc1cccc(C(=O)O)c1)C(=O)c1cn2ccccc2n1` showed a pH-dependent lipophilicity (logD) of 0.6. The compound further gave a microsomal CLint in data set [3] of 113 µL/min/mg. The compound also gave a Ki in [4] above 9.18 µM. Moreover, in data set [1], the IC50 was determined as 0.307 µM.
Take `Cc1ccc(CN(C(=O)c2cnc3ccccc3c2)[C@H](C)c2ccc(F)cc2)cc1C(=O)O`: the concentration for half-maximal inhibition (IC50) in data set [1] was above 7.82 µM.
Take `C[C@H](c1ccc(F)cc1)N(Cc1cccc(CC(=O)O)c1)C(=O)c1cnc2ccccc2c1`: the IC50 in [1] is above 3.25 µM.
Regarding `C[C@H](c1cccc(Cl)c1)N(Cc1cccc(C(=O)O)c1)C(=O)c1cnc2ccccc2c1`, the inhibition at 3 µM in [5], in data set [6], in data set [7], in [9] and in [11] was 0% each time. This compound gave a pH-dependent lipophilicity (logD) in data set [2] of 1.5. The microsomal CLint in [8] was determined as 10 µL/min/mg; in [3] it was 102 µL/min/mg. For the same compound, the hepatocyte intrinsic clearance in data set [10] turned out to be 45 µL/min/million cells. Also, the half-inhibitory concentration (IC50) in data set [1] came to 0.062 µM.
As for `C[C@H](c1ccc(F)cc1F)N(Cc1cccc(C(=O)O)c1)C(=O)c1cc2ccccc2cn1`, the inhibition at 3 µM in [5], in data set [6], in [7], in data set [9] and in [11] was 0% each time. For the same compound, the logD in data set [2] is 1.1. Moreover, the results for the microsomal CLint in [8] and in [3] were 11 µL/min/mg and 31 µL/min/mg, respectively. In addition, in data set [10], the hepatocyte intrinsic clearance is below 2 µL/min/million cells. The half-maximal inhibitory concentration (IC50) in data set [1] was determined as 0.06 µM.
As for `C[C@H](c1ccc(F)cc1)N(Cc1cc(C(=O)O)ccc1F)C(=O)c1cnc2ccccc2c1`, in [1], the concentration for half-maximal inhibition (IC50) worked out at 0.446 µM.
With `C[C@H](c1ccc(F)cc1F)N(Cc1cccc(C(=O)O)c1)C(=O)c1cc2ccccn2n1`, the pH-dependent lipophilicity (logD) in [2] came out at 0.9. Also, the results for the microsomal CLint in [8] and in data set [3] were 23 µL/min/mg and 85 µL/min/mg, respectively. The compound also showed a hepatocyte intrinsic clearance in [10] of 31 µL/min/million cells. Besides, the IC50 in data set [1] was found to be 0.234 µM.
Regarding `O=C(O)c1cccc(CN(C(=O)c2cnc3ccccc3c2)[C@H](CO)c2ccccc2)c1`, in data set [1], the half-inhibitory concentration (IC50) is above 6.86 µM.
Regarding `C[C@H](c1ccc(F)cc1F)N(Cc1cccc(C(=O)O)n1)C(=O)c1cc2ccccc2cn1`, the inhibition at 3 µM in data set [5], in [6], in data set [7], in [9] and in data set [11] was 0% in each case. The compound also came in with a log distribution coefficient (logD) in data set [2] of 0.4. For the same compound, the microsomal CLint came out at 11 µL/min/mg in data set [8] and 31 µL/min/mg in [3]. The same compound registered a hepatocyte intrinsic clearance in [10] below 2.2 µL/min/million cells. Moreover, in [1], the half-maximal inhibitory concentration (IC50) stood at 0.19 µM.
Consider `C[C@H](c1ccc(F)cc1)N(Cc1cccc(C(=O)O)c1)C(=O)c1cc2ccccc2cn1`, for which the pH-dependent lipophilicity (logD) in [2] is 1.1. For the same compound, the microsomal CLint is 16 µL/min/mg in [8] and 166 µL/min/mg in data set [3]. Besides, the hepatocyte intrinsic clearance in data set [10] came to 21 µL/min/million cells. In [4], this compound gave an inhibition constant Ki above 9.18 µM. Also, the IC50 in data set [1] amounted to 0.09 µM.
Turning to `C[C@H](c1ccc(F)cc1)N(Cc1ccc(F)c(C(=O)O)c1)C(=O)c1cnc2ccccc2c1`, in data set [1], the half-maximal inhibitory concentration (IC50) came out at 3.28 µM.
As to `C[C@H](c1ccc(F)cc1)N(Cc1cccc(C(=O)O)c1)C(=O)c1ccc(Oc2ccccc2)cc1`, the 50% inhibitory concentration (IC50) in [1] was above 6.17 µM.
Regarding `CC(C)(c1ccc(F)cc1)N(Cc1cccc(C(=O)O)c1)C(=O)c1cnc2ccccc2c1`, in [1], the IC50 is above 10 µM.
The same measure, in the same setting: the same measure for `CC(c1ccc(F)cc1)N(Cc1cccc(C(=O)O)c1)C(=O)c1ccc2c(c1)CCO2` (racemic): 3.62 µM.
The same measure, in the same setting: the same measure for `C[C@H](c1ccc(F)cc1)N(Cc1cccc(C(=O)O)c1)C(=O)c1cc2ccccc2s1`: 0.145 µM; for `CC(c1ccc(F)cc1)N(Cc1cccc(C(=O)O)c1)C(=O)C1Cc2ccccc2C1` (racemic): above 5 µM; for `C[C@H](c1ccc(F)cc1)N(Cc1cccc(C(=O)O)n1)C(=O)c1cnc2ccccc2c1`: 1.16 µM.
`C[C@H](c1ccc(F)cc1)N(Cc1cccc(C(=O)O)c1)C(=O)c1cc2ccccn2n1`: in data set [2], the logD was 0.9. Besides, the microsomal CLint in data set [8] was 42 µL/min/mg; in [3] it was 325 µL/min/mg. In data set [10], this compound returned a hepatocyte intrinsic clearance of 23 µL/min/million cells. In [4], this compound had an inhibitory constant (Ki) above 9.18 µM. In data set [1], the 50% inhibitory concentration (IC50) worked out at 0.094 µM.
As to `C[C@H](c1ccc(F)cc1F)N(Cc1cccc(C(=O)O)c1)C(=O)c1cnc2ccccc2c1`, the IC50 in [1] worked out at 0.288 µM.
Consider `CC[C@H](c1ccc(F)cc1F)N(Cc1cccc(C(=O)O)c1)C(=O)c1cc2ccccn2n1`, for which the inhibition at 3 µM in data set [5], in [6], in data set [7], in data set [9] and in data set [11] was 0% in each case. The logD in [2] was determined as 1.2. The microsomal CLint in data set [8] was found to be 28 µL/min/mg; in [3], 41 µL/min/mg. The compound also came in with a hepatocyte intrinsic clearance in [10] of 48 µL/min/million cells. Also, in data set [1], the IC50 is 0.123 µM.
Regarding `C[C@H](c1ccc(F)cc1)N(Cc1cccc(C(=O)O)c1)C(=O)Cc1cccc(Cl)c1`, the IC50 in [1] is above 10 µM.
In turn, `CC[C@H](c1ccc(F)cc1)N(Cc1cccc(C(=O)O)c1)C(=O)c1cnc2ccccc2c1` came in with a logD in [2] of 1.3. The microsomal CLint in data set [8] was below 8 µL/min/mg; in data set [3], below 14 µL/min/mg. In addition, in [10], the hepatocyte intrinsic clearance stood at 28 µL/min/million cells. Further, the inhibition constant Ki in [4] was above 15.2 µM. Besides, the 50% inhibitory concentration (IC50) in [1] stood at 0.202 µM.
Turning to `C[C@H](c1ccc(F)cc1)N(Cc1cccc(-c2nn[nH]n2)c1)C(=O)c1cnc2ccccc2c1`, the half-maximal inhibitory concentration (IC50) in data set [1] came to 1.61 µM.
Same read-out and setting: then `CC[C@H](c1ccc(C)o1)N(Cc1cccc(C(=O)O)c1)C(=O)c1cnc2ccccc2c1`, with 0.328 µM; and `COc1ccc(C(C)N(Cc2cccc(C(=O)O)c2)C(=O)c2cnc3ccccc3c2)cc1` (centres undefined), with 6.1 µM.
Consider `C[C@H](c1ccc(F)cc1)N(Cc1cccc(C(=O)O)c1)C(=O)c1cc2ccccc2nn1`, for which the figures for the microsomal CLint in data set [8] and in [3] were below 8 µL/min/mg and 76 µL/min/mg, respectively. For the same compound, the IC50 in [1] was found to be 0.34 µM.
Turning to `C[C@H](c1ccc(F)cc1)N(Cc1cccc(C(=O)O)c1)C(=O)c1cccc(-c2ccccc2)c1`, the IC50 in data set [1] stood at 0.837 µM.
